Source: ChEMBL document CHEMBL4828769, “Discovery of AS-0141, a Potent and Selective Inhibitor of CDC7 Kinase for the Treatment of Solid Cancers” (J Med Chem, 2021)

Tests used:
[1] = target: T1, Cell division cycle 7-related protein kinase (Homo sapiens, UniProt O00311); experiment: Inhibition of CDC7 in human COLO205 cells assessed as reduction in MCM2 phosphorylation at S53 residue at 0.1 uM incubated for 48 hrs by Western blot analysis relative to control; type: cell-based; conditions: COLO 205
Target sequence in this assay (O00311 whole entry, looked up): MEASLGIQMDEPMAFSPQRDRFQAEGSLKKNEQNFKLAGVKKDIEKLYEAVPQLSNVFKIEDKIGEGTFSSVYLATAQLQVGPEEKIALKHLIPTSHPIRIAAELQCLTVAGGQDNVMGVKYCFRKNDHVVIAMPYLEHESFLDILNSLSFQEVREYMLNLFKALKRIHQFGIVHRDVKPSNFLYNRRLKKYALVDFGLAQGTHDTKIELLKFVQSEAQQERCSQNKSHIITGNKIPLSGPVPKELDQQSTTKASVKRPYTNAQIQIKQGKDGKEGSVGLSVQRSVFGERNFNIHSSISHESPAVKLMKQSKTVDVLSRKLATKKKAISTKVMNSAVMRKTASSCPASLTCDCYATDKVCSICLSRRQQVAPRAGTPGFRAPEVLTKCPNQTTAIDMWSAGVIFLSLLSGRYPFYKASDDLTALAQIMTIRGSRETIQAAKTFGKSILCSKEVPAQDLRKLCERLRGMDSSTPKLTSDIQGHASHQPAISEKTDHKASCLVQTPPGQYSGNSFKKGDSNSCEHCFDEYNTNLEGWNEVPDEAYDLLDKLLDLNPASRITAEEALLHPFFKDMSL

[2] = Cmax in mouse at 10 mg/kg, po; type: ADME, organism-based; design: route oral, dose 10 mg/kg; conditions: in vivo
[3] = In vivo inhibition of CDC7 in human SW-620 cells xenografted in BALB/c nude mouse assessed as reduction in phosphorylation of MCM2 at Ser53 residue at 120 mg/kg, po measured after 8 hrs; type: functional; conditions: SW-620, po
[4] = target: Serine/threonine-protein kinase pim-1 (Homo sapiens, UniProt P11309); experiment: Inhibition of PIM1 (unknown origin) in presence of 1 mM ATP without preincubation
Serine/threonine-protein kinase pim-1, sequence (P11309 whole entry): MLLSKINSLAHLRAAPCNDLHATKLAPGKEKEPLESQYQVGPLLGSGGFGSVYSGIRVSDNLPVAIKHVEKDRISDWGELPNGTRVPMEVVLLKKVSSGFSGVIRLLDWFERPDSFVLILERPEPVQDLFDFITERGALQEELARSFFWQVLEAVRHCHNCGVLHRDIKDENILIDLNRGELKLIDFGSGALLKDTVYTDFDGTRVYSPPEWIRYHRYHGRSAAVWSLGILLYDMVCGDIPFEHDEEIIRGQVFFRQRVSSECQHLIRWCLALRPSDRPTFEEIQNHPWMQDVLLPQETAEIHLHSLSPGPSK

[5] = Metabolic stability in human liver microsomes assessed as parent compound remaining after 30 mins; type: ADME, Microsome; conditions: liver microsomes, read-out: Stability
[6] = AUC(0 to infinity) in dog at 2 mg/kg, po; type: ADME, organism-based, Canis lupus familiaris; design: route oral, time infinity, dose 2 mg/kg; conditions: in vivo
[7] = Half life in dog at 1 mg/kg, iv; type: ADME, organism-based, Canis lupus familiaris; conditions: in vivo
[8] = target: Dual specificity protein kinase CLK2 (Homo sapiens, UniProt P49760); experiment: Inhibition of CLK2 (unknown origin) in presence of 1 mM ATP without preincubation
Dual specificity protein kinase CLK2, sequence (P49760 whole entry): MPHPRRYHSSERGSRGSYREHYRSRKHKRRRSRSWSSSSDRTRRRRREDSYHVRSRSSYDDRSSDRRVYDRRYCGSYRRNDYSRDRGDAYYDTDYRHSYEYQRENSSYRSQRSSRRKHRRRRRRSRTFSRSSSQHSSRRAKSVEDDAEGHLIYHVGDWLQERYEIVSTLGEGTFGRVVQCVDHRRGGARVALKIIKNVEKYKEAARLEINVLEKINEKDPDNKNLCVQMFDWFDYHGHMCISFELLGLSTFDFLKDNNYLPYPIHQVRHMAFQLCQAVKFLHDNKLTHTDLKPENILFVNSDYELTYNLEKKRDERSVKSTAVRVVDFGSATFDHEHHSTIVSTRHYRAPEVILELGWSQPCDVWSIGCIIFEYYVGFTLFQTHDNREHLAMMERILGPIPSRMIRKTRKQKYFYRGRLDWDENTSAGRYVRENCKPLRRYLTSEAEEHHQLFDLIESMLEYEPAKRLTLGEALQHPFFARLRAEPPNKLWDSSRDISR

[9] = target: T2, Glycogen synthase kinase-3 alpha (Homo sapiens, UniProt P49840); experiment: Inhibition of GSK3alpha (unknown origin) in presence of 1 mM ATP without preincubation
Target sequence in this assay (P49840 whole entry): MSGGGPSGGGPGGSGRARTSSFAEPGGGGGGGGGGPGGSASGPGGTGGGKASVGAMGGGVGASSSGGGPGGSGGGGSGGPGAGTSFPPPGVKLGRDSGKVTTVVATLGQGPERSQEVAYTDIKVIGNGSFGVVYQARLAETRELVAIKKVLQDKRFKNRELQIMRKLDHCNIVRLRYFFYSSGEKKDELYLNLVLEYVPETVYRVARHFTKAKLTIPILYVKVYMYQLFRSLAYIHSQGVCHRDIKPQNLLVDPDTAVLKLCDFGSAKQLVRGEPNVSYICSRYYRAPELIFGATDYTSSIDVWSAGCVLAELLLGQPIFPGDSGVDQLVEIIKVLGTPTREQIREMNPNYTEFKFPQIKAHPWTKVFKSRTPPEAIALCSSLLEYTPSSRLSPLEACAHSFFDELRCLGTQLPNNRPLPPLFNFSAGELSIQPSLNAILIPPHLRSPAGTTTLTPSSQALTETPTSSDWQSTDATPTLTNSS

[10] = Oral bioavailability in dog at 2 mg/kg; type: ADME, organism-based, Canis lupus familiaris; conditions: in vivo
[11] = target: T2, Glycogen synthase kinase-3 alpha; experiment: Inhibition of GSK3alpha (unknown origin) at 0.1 uM in presence of 1 mM ATP relative to control
Target sequence in this assay (P49840 2-483 limits assumed): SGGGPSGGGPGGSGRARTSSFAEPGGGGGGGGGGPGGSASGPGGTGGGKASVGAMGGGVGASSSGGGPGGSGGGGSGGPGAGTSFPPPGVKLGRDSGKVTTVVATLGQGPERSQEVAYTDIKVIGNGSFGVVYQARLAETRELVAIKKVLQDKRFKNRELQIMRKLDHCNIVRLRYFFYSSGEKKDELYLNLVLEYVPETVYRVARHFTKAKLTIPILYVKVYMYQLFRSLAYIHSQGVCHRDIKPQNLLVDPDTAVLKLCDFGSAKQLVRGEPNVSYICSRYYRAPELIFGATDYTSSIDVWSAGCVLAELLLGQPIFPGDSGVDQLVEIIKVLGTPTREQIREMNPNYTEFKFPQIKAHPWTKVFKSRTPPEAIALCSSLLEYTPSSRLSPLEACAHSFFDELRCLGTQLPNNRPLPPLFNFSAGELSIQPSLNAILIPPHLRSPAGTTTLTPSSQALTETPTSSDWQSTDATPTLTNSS

COLO 205 = experiment: Induction of cell cycle arrest in human COLO205 cells assessed as accumulation of cells at sub-G1 phase at 1 uM incubated for 48 hrs by propidium iodide staining based flow cytometry analysis; type: functional
[12] = target: T3, Dual specificity protein kinase CLK1 (Homo sapiens, UniProt P49759); experiment: Inhibition of CLK1 (unknown origin) at 0.1 uM in presence of 1 mM ATP relative to control
Target sequence in this assay (P49759 whole entry, looked up): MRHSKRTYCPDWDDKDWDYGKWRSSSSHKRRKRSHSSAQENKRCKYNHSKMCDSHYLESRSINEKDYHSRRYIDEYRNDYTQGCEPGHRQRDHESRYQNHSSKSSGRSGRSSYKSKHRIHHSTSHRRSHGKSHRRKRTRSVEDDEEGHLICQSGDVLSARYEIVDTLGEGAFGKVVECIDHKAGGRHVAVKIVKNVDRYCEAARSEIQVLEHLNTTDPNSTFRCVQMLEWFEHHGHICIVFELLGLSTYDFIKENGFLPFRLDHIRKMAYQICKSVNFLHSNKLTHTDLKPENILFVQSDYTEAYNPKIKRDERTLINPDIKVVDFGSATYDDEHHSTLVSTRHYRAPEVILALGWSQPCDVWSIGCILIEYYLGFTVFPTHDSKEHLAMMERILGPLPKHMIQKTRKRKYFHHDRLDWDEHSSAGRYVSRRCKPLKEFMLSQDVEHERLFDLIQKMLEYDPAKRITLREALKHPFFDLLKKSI

[13] = Apparent permeability across apical to basolateral side in human Caco-2 cells; type: ADME, cell-based
[14] = AUC(0 to infinity) in rat at 2 mg/kg, iv; type: ADME, organism-based; design: route intravenous, time infinity, dose 2 mg/kg; conditions: in vivo
[15] = Inhibition of human CDC7/ASK using FITC-labelled MCM2 substrate in presence of 5 uM of ATP
[16] = Oral bioavailability in mouse at 10 mg/kg; type: ADME, organism-based; conditions: in vivo
[17] = Tmax in rat at 10 mg/kg, po; type: ADME, organism-based; conditions: in vivo
[18] = Cmax in rat at 10 mg/kg, po; type: ADME, organism-based; design: route oral, dose 10 mg/kg; conditions: in vivo
[19] = target: T1, Cell division cycle 7-related protein kinase; experiment: Inhibition of CDC7 in human SW-620 cells assessed as reduction in phosphorylation of MCM2 at Ser40 residue incubated for 48 hrs by Western blot analysis; type: cell-based
[20] = Metabolic stability in mouse liver microsomes assessed as parent compound remaining after 30 mins; type: ADME, Microsome; conditions: liver microsomes, read-out: Stability
[21] = target: T3, Dual specificity protein kinase CLK1; experiment: Inhibition of CLK1 (unknown origin) in presence of 1 mM ATP with preincubation
Target sequence in this assay (P49759 whole entry): as the sequence (P49759 whole entry, looked up) above

SW-620 = experiment: Induction of apoptosis in human SW-620 cells assessed as increase in cleaved caspase 3 level incubated for 48 hrs by Western blot analysis; type: functional, cell-based; conditions: dose 0.03-1 µM
[22] = Volume of distribution in rat at 2 mg/kg, iv; type: ADME, organism-based; conditions: in vivo
[23] = Metabolic stability in dog liver microsomes assessed as parent compound remaining after 30 mins; type: ADME, Canis lupus familiaris, Microsome; conditions: read-out: Stability

CCOC(=O)C1=C(NN2CCN(CC(F)(F)F)CC2)O/C(=C\c2c[nH]c3ncccc23)C1=O [MONZOSERTIB]
inhibition [1]: 100% | Cmax [2]: 285 ng/mL | inhibition in vivo at 120 mg/kg [3]: 83% | IC50 [4]: 30 nM | remaining at 0.5 h [5]: 89% | AUC(0-inf) [6]: 834 ng·h/mL | half-life [7]: 4.8 h | IC50 [8]: 270 nM | IC50 [9]: 189 nM | bioavailability [10]: 33.3% | inhibition [11]: > 30% | Activity (COLO 205): 51% | inhibition [12]: > 30% | Papp A→B [13]: 24.9 ×10⁻⁶ cm/s | AUC(0-inf) [14]: 887 ng·h/mL | IC50 [15]: 8.2 nM | bioavailability [16]: 30.6% | Tmax [17]: 1 h | Cmax [18]: 426 ng/mL | IC50 [19]: 36 nM | inhibition ([19]; dose 0.03-1 µM): Dose-Dependent Effect | remaining at 0.5 h [20]: 18.7% | IC50 [21]: 206 nM | Activity (SW-620): Dose-Dependent Effect | Vd [22]: 3.24 L/kg | remaining at 0.5 h [23]: 81%
